These results are taken from PMC12753220, “A new amidohydrolase and β-oxidation–like pathway for piperine catabolism in soil actinomycetes” (The Journal of Biological Chemistry, 2025).

The target of this assay is T1, PipM (piperine hydrolase) (Rhodococcus erythropolis, UniProt Z9TMQ3P3F8).
T1 construct: full length, no signal peptide, untagged (pET24a(+)-pipM), E. coli Rosetta2 (DE3); ORF 1389 nt (462 residues deduced), ~50 kDa monomer, homotetramer ~220 kDa; N-terminus of native protein NSFALSNV
T1 sequence (Z9TMQ3P3F8 1-462): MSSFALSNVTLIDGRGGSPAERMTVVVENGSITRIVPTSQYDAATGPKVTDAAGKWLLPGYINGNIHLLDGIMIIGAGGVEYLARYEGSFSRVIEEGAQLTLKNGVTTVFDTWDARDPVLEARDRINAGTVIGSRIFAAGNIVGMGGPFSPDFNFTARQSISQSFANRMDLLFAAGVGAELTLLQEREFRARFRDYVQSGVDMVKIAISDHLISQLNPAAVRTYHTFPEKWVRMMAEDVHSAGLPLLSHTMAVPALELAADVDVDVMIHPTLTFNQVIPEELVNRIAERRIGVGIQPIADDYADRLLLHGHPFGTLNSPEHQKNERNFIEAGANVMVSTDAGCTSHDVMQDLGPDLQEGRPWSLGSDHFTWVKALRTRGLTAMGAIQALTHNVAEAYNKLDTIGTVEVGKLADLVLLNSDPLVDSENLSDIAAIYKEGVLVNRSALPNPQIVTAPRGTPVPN
Kind of assay: HPLC at […] nm of piperic acid formation, Michaelis-Menten fit. Format: biochemical. As to conditions: 50 mM potassium phosphate pH 7.5, 28 °C, 1 min, 0.116 μM PipM, 0.001-0.5 mM piperine.

As usually defined, the Km is the concentration of substrate that gives half-maximal velocity.

As for `O=C(/C=C/C=C/c1ccc2c(c1)OCO2)N1CCCCC1` [piperine], the Km was determined as 2.11 ± 0.31 µM.
